The numbers were not newly measured in patent EP4741436A1, “POLYMERIZABLE COMPOSITION FOR OPTICAL MATERIAL, POLYMERIZABLE PREPOLYMER COMPOSITION FOR OPTICAL MATERIAL, CURED ARTICLE, AND METHOD FOR PRODUCING OPTICAL MATERIAL” (Mitsui Chemicals, Inc., priority 2023, dated 2025), which cites them from elsewhere.

Like-named read-outs stand apart in the source and are kept apart here.

The conditions of this data set: for pKa: organic acids and basic polymerization catalysts, values given in text.

For the compound `CCS(=O)(=O)O` [ethanesulfonic acid], the pKa is 1.8.

For `CCCCS(=O)(=O)O` [butanesulfonic acid], the pKa is recorded as 1.9.

Consider `CCCS(=O)(=O)O` [propanesulfonic acid], for which the pKa is 1.9.

As for `C=CS(=O)(=O)O` [vinylsulfonic acid], the pKa is listed as -2.7.

On to `CC1(C)C2CCC1(CS(=O)(=O)O)C(=O)C2` (racemic) [10-camphorsulfonic acid, (±)-10-camphorsulfonic acid], for which the pKa is reported as 1.2. In addition, the “pKa of Organic Acid” value (organic acid used in the composition of the column) is reported as 1.17. Moreover, the pKa (listed as (±)-10-camphorsulfonic acid) is 1.17.

Turning to `O=S(=O)(O)c1ccccc1` [benzenesulfonic acid], the pKa is 0.7.
